The subject of this test is E. coli. The experiment in a line: Resazurin fluorescence assay of E. coli mixed with ampicillin. The test is classed as cell-based. Conditions: for fluorescence: 583 nm; for increase in fluorescence signal compared to resazurin alone: 4 hr incubation. The text has this:
In some examples, the metabolic indicator includes a fluorogenic compound. A non-limiting example of a fluorogenic compound that may be used as a metabolic indicator includes resazurin which is transformed to resorufin when mixed with living cells, such as with bacteria. […] Resorufin is fluorescent, which allows for monitoring the reaction. For example, resorufin is excited at around 540 nanometers (nm) and emits around 590 nm. Living cells, such as bacteria, may be mixed with resazurin for around one to four hours. For example, after incubation and to overcome the background signal, around 7×10^6 colony forming unit per milliliter (cfu/mL) of Escherichia coli may be present.
FIG. 2C illustrates the example apparatus 200 of FIG. 2A while the imaging device is capturing images of the substrate, in accordance with the present disclosure. As described with regards to FIG. 2B, the imaging device 215 may capture images at any point in time, and/or once a statiscially significant signal is detected. Also, as described with regards to FIG. 2A, resazurin reduction results in an increase in fluorescence. Accordingly, as bacterial concentration increases over time, more resazurin reduction results and the result is an increase in fluorescence. Antibiotic combinations that disrupt bacterial growth may therefore have less fluorescence than those combinations which have no effect. […] This conclusion may be obtained, because region 219-4, region 219-3, and region 219-2 each have a greater fluorescence level as compared to region 219-1, which is the result of more resazurin reduction by living cells (such as bacteria).
Background conversion of resazurin to resorufin (in absence of bacteria) can be calibrated out for increased sensitivity and reduction of assay time. Moreover, the minimum inhibitory concentration of the antibiotic (or antibiotic combination) can be measured, because the microfluidic device 211 is capable of dispensing very small volumes of reagents (e.g., antibiotics), as well as precise volumes of reagent combinations. The rate of fluorescence increase can be correlated to bacterial growth rate and thus the inhibition potential of a particular antibiotic can be measured, as illustrated in the graph included in FIG. 2C. This fluorescence readout may be obtained between 3 and 6 hours, and may thus be used for fast determination of combinations of antibiotics for antibiotic treatment.
As illustrated in the top portion of FIG. 6, a MIC test strip from Liofilchem® containing a gradient of ampicillin was applied on an agar plate coated with E. coli. The minimum inhibitory concentration of ampicillin was approximately 2 μg/mL. The E. coli was mixed with various concentrations of ampicillin (0 to 8 μg/mL) and resazurin, and the fluorescence was measured at various times. The concentrations of ampicillin used was 0 μg/mL, 0.25 μg/mL, 0.5 μg/mL, 1 μg/mL, 2 μg/mL, and 8 μg/mL. […] For the sample including E. coli and 8 μg/mL of ampicillin, the fluorescence increased from approximately 10,000 a.u. at 30 minutes, to approximately, 35,000 a.u. at 3 hours and 4 hours. For the sample including E. coli and 0 μg/mL of ampicillin, the fluorescence increased from approximately 10,000 a.u. at 30 minutes, to approximately, 50,000 a.u. at 3 hours and 10^5 a.u at 4 hours. For the sample including E. coli and 0.25 μg/mL of ampicillin, the fluorescence increased from approximately 10,000 a.u. at 30 minutes, to approximately 60,000 a.u. at 3 hours, and approximately 80,000 a.u. at 4 hours. For the sample including E. coli and 0.5 μg/mL of ampicillin, the fluorescence increased from approximately 10,000 a.u. at 30 minutes, to approximately 70,000 a.u. at 3 hours, and approximately 80,000 a.u. at 4 hours. For the sample including E. coli and 1 μg/mL of ampicillin, the fluorescence increased from approximately 10,000 a.u. at 30 minutes, to approximately 75,000 a.u. at 3 hours, and approximately 10^5 a.u. at 4 hours. […]
For orientation: Resazurin is reduced to fluorescent resorufin, in cell work by metabolically active cells.

Take `CC1(C)S[C@@H]2[C@H](NC(=O)[C@H](N)c3ccccc3)C(=O)N2[C@H]1C(=O)O` [ampicillin]: the fluorescence result reads like this: (E. coli + 0.25 μg/mL ampicillin + resazurin, 30 minutes) “approximately 10,000 a.u”; (E. coli + 0.25 μg/mL ampicillin + resazurin, 3 hours) “approximately 60,000 a.u”; (E. coli + 0.25 μg/mL ampicillin + resazurin, 4 hours) “approximately 80,000 a.u”; (E. coli + 0.5 μg/mL ampicillin + resazurin, 30 minutes) “approximately 10,000 a.u”; (E. coli + 0.5 μg/mL ampicillin + resazurin, 3 hours) “approximately 70,000 a.u”; (E. coli + 0.5 μg/mL ampicillin + resazurin, 4 hours) “approximately 80,000 a.u”. Moreover, the fluorescence entry reads like this: (E. coli + 1 μg/mL ampicillin + resazurin, 30 minutes) “approximately 10,000 a.u”; (E. coli + 1 μg/mL ampicillin + resazurin, 3 hours) “approximately 75,000 a.u”; (E. coli + 2 μg/mL ampicillin + resazurin, 30 minutes) “approximately 10,000 a.u”; (E. coli + 2 μg/mL ampicillin + resazurin, 3 hours) “approximately 75,000 a.u”; (E. coli + 8 μg/mL ampicillin + resazurin, 30 minutes) “approximately 10,000 a.u”; (E. coli + 8 μg/mL ampicillin + resazurin, 3 hours) ~35,000 a.u. The fluorescence (E. coli + 8 μg/mL ampicillin + resazurin, 4 hours) is ~35,000 a.u. Also, the “increase in fluorescence signal compared to resazurin alone” value is 6 × ([ampicillin]<2 μg/mL) and 2 × (ampicillin 8 μg/mL).

The values are drawn from patent US20250027966A1, “A MICROFLUIDIC DEVICE TO DISPENSE A METABOLIC INDICATOR” (Hewlett-Packard Development Company, L.P., priority 2021, published 2025).
